Reference: patent publication US9598441B2, “Therapeutic compounds and methods” (Wayne State University, priority 2011, dated 2017)

Target: T1, endogenous interaction between CARP-1 and APC-2 in MDA-MB-468 HBC cells (Homo sapiens, UniProt Q8IX12)
T1 construct: endogenous in cells; host or cells: MDA-MB-468 human breast cancer cells
T1 sequence (Q8IX12 1-1150): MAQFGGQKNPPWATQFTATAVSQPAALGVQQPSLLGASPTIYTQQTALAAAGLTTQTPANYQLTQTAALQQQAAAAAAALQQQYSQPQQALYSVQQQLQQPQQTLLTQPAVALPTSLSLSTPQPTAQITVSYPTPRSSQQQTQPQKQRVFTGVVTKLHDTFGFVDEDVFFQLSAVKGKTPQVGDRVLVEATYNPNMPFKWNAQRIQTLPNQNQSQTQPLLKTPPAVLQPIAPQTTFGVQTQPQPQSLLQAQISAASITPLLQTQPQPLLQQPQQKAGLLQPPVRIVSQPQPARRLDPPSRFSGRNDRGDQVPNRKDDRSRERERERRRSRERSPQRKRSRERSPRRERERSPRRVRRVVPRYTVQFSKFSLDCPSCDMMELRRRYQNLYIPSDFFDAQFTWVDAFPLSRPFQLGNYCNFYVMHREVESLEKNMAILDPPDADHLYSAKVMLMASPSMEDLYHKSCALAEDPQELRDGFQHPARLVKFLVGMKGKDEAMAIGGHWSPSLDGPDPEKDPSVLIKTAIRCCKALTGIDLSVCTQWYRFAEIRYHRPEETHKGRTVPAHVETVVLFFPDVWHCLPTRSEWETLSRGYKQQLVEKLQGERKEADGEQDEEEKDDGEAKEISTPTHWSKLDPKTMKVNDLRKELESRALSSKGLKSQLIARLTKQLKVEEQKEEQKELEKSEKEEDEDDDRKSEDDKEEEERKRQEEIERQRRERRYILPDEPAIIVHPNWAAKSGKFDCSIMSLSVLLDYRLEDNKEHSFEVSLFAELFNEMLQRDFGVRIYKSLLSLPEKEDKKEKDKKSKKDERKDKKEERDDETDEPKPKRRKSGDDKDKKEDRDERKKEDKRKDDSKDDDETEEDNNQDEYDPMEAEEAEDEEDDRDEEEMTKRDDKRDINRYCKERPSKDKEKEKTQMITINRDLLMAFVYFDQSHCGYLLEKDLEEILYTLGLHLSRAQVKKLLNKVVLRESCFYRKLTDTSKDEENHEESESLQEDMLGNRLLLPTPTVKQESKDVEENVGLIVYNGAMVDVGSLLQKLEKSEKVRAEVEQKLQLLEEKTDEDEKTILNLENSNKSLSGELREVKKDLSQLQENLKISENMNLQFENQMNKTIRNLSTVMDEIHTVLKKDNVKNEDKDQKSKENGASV
Assay: IP-WB of endogenous CARP-1/APC-2 interaction in treated cells
Assay type: cell-based
Details: escalating doses, 12 h
Description: FIGS. 2A-2D: Identification of small molecular antagonists of CARP-1 binding with APC-2. 2A, FP assay for CARP-1-APC-2 binding. Increasing concentrations of fluorescein-tagged A-epitope peptide [CARP-1 (951-980)] were incubated with the indicated quantities of the Gst-APC-2(685-754) proteins in assay buffer containing 0.01% triton-X100. Gst-NEMO (221-317) was included as a negative control. mP, millipolarization units. 2B, chemical structures of inhibitors of CARP-1 binding with APC-2 identified from HTS. CFM, CARP-1 Functional Mimetic; CFM-1, (Z)-5-(5-bromo-7-methyl-2-oxoindolin-3-ylidene)-2-thioxothiazolidin-4-one; CFM-4,1-(2-chlorobenzyl)-5′-phenyl-3′H-spiro[indoline-3,2′-[1,3,4]thiadiazol]-2-one; CFM-5,5-bromo-1-phenethyl-5′-phenyl-3′H-spiro[indoline-3,2′-[1,3,4]thiadiazol]-2-one. 2C, CFM-4 and CFM-5 bind CARP-1. […] The complexes were analyzed by SDS-PAGE followed by WB with the noted antibodies. […] Immunoprecipitates or the respective cell lysates were analyzed by WB with noted antibodies as in FIG. 1A. […]
Logarithmically growing cells were either untreated or treated with different agents for various time periods. […] The cell growth inhibition was assessed by using MTT assay. […] The assessment of the live cells was derived by measuring the absorbance of the converted dye at wavelength of 570 nm. […]

SMILES: O=C1N(Cc2ccccc2Cl)c2ccccc2C12NN=C(c1ccccc1)S2 (stereo not shown) [CFM-4, 1-(2-chlorobenzyl)-5′-phenyl-3′H-spiro[indoline-3,2′-[1,3,4]thiadiazol]-2-one]
- Binding of CARP-1 with APC-2 in cells (IP-WB): declined in the presence of CFM-4 in a dose-dependent manner
